Read-outs that look alike come from different tables or passages of the source.
Columns and labels:
[1] = tested on: Escherichia coli; assay: In vivo antibacterial activity in mice infected with Escherichia coli (intraperitoneal), compound given orally at infection and 4 hours later; mortality through third day; details: for ED50: Escherichia coli, po, 72 h
Experimental: Use of the ester of this invention as antibacterial agents is exemplified by data for 6,7-methylene-1-(2,2,2-trifluoroethyl)-4(1H)-quinolone-3-carboxylic acid, trimethylacetoxymethyl ester. In vivo determinations of antibacterial activity are carried out in mice.
The test bacterium is grown into bacteriological medium from frozen stock cultures. The culture is centrifuged, resuspended, centrifuged again, resuspended in fresh bacteriological medium, and diluted to the proper infective concentration. Mice are infected by intraperitoneal or intravenous injection of 0.2 ml. of the diluted bacterial culture.
Test compounds are dissolved or suspended in water containing 0.01% Tween 80 by either sonication or bead-milling to break up the materials in order to dissolve them or provide a fine suspension for the insoluble compounds. Concentrations are prepared so that when 0.2 ml. of the solution or suspension is administered to mice orally by intubation, the correct amount of compound in mg/kg of mouse is provided.
The mice are dosed with test compound orally by intubation at appropriate intervals following infection and mortality is recorded through the third day. The effective dose 50 (ED50) and lethal dose for 50% kill (LD50) are calculated by the Reed-Muench method.
In Table I are the results of a test in mice infected with Escherichia coli by the intraperitoneal route. Compound was administered orally by intubation immediately following infection and again 4 hours after infection.
^1 Animals dosed orally at the time of infection and again four hours
^2 Determined by agar plate counts and stock culture titration, the
dose is the LD50 multiplied by the number preceding it.

[2] = Biological activity of stable versus metastable crystalline form (test not specified); type: in vivo; details: probably due to poor absorption
[3] = 18 LD50 E. coli infection, 10 mg/kg PO, at infection and again 4 hours later
[4] = 18 LD50 E. coli infection, 30 mg/kg PO, at infection and again 4 hours later
[5] = 18 LD50 E. coli infection, 100 mg/kg PO, at infection and again 4 hours later
[6] = 135 LD50 E. coli infection, 10 mg/kg PO, at infection and again 4 hours later
[7] = 135 LD50 E. coli infection, 30 mg/kg PO, at infection and again 4 hours later
[8] = 135 LD50 E. coli infection, 100 mg/kg PO, at infection and again 4 hours later
[9] = 4 LD50 E. coli infected mice, oral, read-out: ED50
[10] = 2 LD50 E. coli infected mice, oral, read-out: ED50

CC(C)(C)C(=O)OCOC(=O)c1cn(CC(F)(F)F)c2cc3c(cc2c1=O)OCO3 [Example 6, 6,7-Methylenedioxy-1-(2,2,2-trifluoroethyl)-4(1H)-quinolone-3-carboxylic acid, trimethylacetoxymethyl ester]
% Survivors [1, 3]: 33% | % Survivors [1, 4]: 50% | % Survivors [1, 5]: 75% | % Survivors [1, 6]: 17% | % Survivors [1, 7]: 8% | % Survivors [1, 8]: 50% | ED50 ([1]; 18 LD50 E. coli infection, PO, at infection and again 4 hours later, Reed-Muench, read-out: ED50): 24 mg/kg | ED50 ([1]; 135 LD50 E. coli infection, PO, at infection and again 4 hours later, Reed-Muench, read-out: ED50): 77 mg/kg | antibacterial activity compared with oxolinic acid ([1]; systemic Escherichia coli infection of mice, two infecting levels of bacteria): significantly greater antibacterial activity than does oxolinic acid

CC(C)C(=O)OCOC(=O)c1cn(CC(F)(F)F)c2cc3c(cc2c1=O)OCO3 [Example 6A, 6,7-methylenedixoy-1-(2,2,2-trifluoroethyl)-4(1H)-quinolone-3-carboxylic acid, iso-butyryloxymethyl ester]
ED50 [1, 9]: 73 mg/kg

CCC(C)(C)C(=O)OCOC(=O)c1cn(CC(F)(F)F)c2cc3c(cc2c1=O)OCO3 [Example 6B, 6,7-methylenedioxy-1-(2,2,2-trifluoroethyl)-4(1H)-quinolone-3-carboxylic acid, 2,2-dimethyl-n-butyryloxymethyl ester]
ED50 [1, 9]: 40 mg/kg

CCCCCC(=O)OCOC(=O)c1cn(CC(F)(F)F)c2cc3c(cc2c1=O)OCO3 [Example 6C, 6,7-methylenedioxy-1-(2,2,2-trifluoroethyl)-4(1H)-quinolone-3-carboxylic acid, n-hexanoyloxymethyl ester]
ED50 [1, 9]: 25 mg/kg

CCCCCCCCCC(=O)OCOC(=O)c1cn(CC(F)(F)F)c2cc3c(cc2c1=O)OCO3 [Example 6D, 6,7-methylenedioxy-1-(2,2,2-trifluoroethyl)-4(1H)-quinolone-3-carboxylic acid, n-decanoyloxymethyl ester]
ED50 [1, 10]: 19 mg/kg

O=C(OCOC(=O)C1CCCCC1)c1cn(CC(F)(F)F)c2cc3c(cc2c1=O)OCO3 [Example 6E, 6,7-methylenedioxy-1-(2,2,2-trifluoroethyl)-4(1H)-quinolone-3-carboxylic acid, cyclohexanecarbonyloxymethyl ester]
ED50 [1, 10]: 29 mg/kg

O=C(OCOC(=O)c1cn(CC(F)(F)F)c2cc3c(cc2c1=O)OCO3)c1ccccc1 [Example 6F, 6,7-methylenedioxy-1-(2,2,2-trifluoroethyl)-4(1H)-quinolone-3-carboxylic acid, benzoyloxymethyl ester]
ED50 [1, 9]: 34 mg/kg

CCn1cc(C(=O)O)c(=O)c2cc3c(cc21)OCO3 [Oxolinic Acid, reference compound]
% Survivors [1, 3]: 8% | % Survivors [1, 4]: 33% | % Survivors [1, 5]: 83% | % Survivors [1, 6]: 17% | % Survivors [1, 7]: 17% | % Survivors [1, 8]: 25% | ED50 ([1]; 18 LD50 E. coli infection, at infection and again 4 hours later, Reed-Muench): 45 mg/kg | ED50 ([1]; 135 LD50 E. coli infection, at infection and again 4 hours later, Reed-Muench): > 100 mg/kg

CC(C)(C)C(=O)OCOC(=O)c1cn(CC(F)(F)F)c2cc3c(cc2c1=O)OCO3 [stable form, 6,7-Methylenedioxy-1-(2,2,2-trifluoroethyl)-4(1H)-quinolone-3-carboxylic acid, trimethylacetoxymethyl ester]
biological activity of stable form compared with meta-stable form [2]: less active than the meta-stable

— patent US4036962A, “6,7-Methylenedioxy-1-(2,2,2-trifluoroethyl)-4(1H)-quinolone-3-carboxylic acid and its salts and esters” (E. I. Du Pont de Nemours and Co., priority 1975, dated 1977)
